Values after ≈ are worked out from the molar mass of the structure shown. Read-outs that look alike come from different tables or passages of the source.
How the values were obtained:
human (hACC2) = human (hACC2) (Homo sapiens, UniProt O00763); assay: In vitro ACC inhibition assay (ADP-Glo), hACC2; type: biochemical; conditions: 5 nM ACC2, 20 μM ATP, 20 μM acetyl-CoA
Protocol: The detailed procedure is as follows. […] 10 μL ADP glo reagent was added. […] 20 μL kinase detection reagent was added.

C. albicans = assay: Antifungal Activity Assay (broth microtiter MIC), C. albicans; type: cell-based, Candida albicans; conditions: Candida albicans, ATCC90028, 48 h, ATCC 90028, 3 replicates, MIC recorded at 48 h, read-out: MIC, C. albicans ATCC 90028
Protocol: (§1) Compounds of the present invention were evaluated in an Antifungal Activity Assay. An exemplary procedure for the assay, which measures the susceptibility of various Candida species to antifungal compounds, follows. Compounds to be tested (including fluconazole and amphotericin B) were dissolved in DMSO to obtain a solution having a concentration of 1 mg/mL. These stock solutions were sterile filtered using a 0.22 um nylon syringe filter, then diluted in sterile water to achieve a final concentration of 128 μg/mL.
(§2) All species were grown from frozen stock by directly plating on to freshly prepared Sabouraud Dextrose agar (BD, Difco) and incubated overnight in ambient air at 35° C. for 24 h. A direct suspension was prepared in RPMI 1640+MOPS (Lonza, Biowhittaker) by taking individual colonies from the overnight cultures using sterile swabs soaked in sterile saline. The concentration of the suspension was determined using pre-determined standard curves. These suspensions were then diluted down to 5×10^3 CFU/mL to achieve a final concentration of 2.5×10^3 CFU/mL once added to the microtiter plate as per CLSI guidelines (M27-A3, Vol. 28 No. 14).
(§3) Broth microtiter MIC challenge plates were prepared following CLSI guidelines (M27-A3, Vol. 28 No. 14). The original CLSI guidelines focused on reading Candida MICs after 48 h of incubation. As reading after only 24 h offers a clear advantage of patient care, QC limits are being established for all drugs at 24 h. That being said there are no known interpretive breakpoints for amphotericin B at 24 h and the current fluconazole interpretive breakpoints are based on a 48 h reading. The MICs for the test compounds were recorded at 48 h. All MIC determinations were achieved by visually comparing the growth found in the antibiotic challenged wells to that of the growth control.

C. krusei = assay: Antifungal Activity Assay (broth microtiter MIC), C. krusei; type: cell-based, Candida krusei; conditions: Pichia kudriavzevii, ATCC6258, 48 h, ATCC 6258, 3 replicates, MIC recorded at 48 h, read-out: MIC, C. krusei ATCC 6258
Protocol: as §1, §2, §3

C. parapsilosis = assay: Antifungal Activity Assay (broth microtiter MIC), C. parapsilosis; type: cell-based, Candida parapsilosis; conditions: Lodderomyces parapsilosis, ATCC22019, 48 h, ATCC 22019, 3 replicates, MIC recorded at 48 h, read-out: MIC, C. parapsilosis ATCC 22019
Protocol: as §1, §2, §3

fungal (fACC2) = fungal (fACC2) (UniProt Q00955); conditions: read-out: fACC2 (in vitro ACC2 Inhibition Assay, IC50), ADP-Glo, 5 nM ACC2, 20 μM ATP, 20 μM acetyl-CoA
Chain of fungal (fACC2) (Q00955 whole entry): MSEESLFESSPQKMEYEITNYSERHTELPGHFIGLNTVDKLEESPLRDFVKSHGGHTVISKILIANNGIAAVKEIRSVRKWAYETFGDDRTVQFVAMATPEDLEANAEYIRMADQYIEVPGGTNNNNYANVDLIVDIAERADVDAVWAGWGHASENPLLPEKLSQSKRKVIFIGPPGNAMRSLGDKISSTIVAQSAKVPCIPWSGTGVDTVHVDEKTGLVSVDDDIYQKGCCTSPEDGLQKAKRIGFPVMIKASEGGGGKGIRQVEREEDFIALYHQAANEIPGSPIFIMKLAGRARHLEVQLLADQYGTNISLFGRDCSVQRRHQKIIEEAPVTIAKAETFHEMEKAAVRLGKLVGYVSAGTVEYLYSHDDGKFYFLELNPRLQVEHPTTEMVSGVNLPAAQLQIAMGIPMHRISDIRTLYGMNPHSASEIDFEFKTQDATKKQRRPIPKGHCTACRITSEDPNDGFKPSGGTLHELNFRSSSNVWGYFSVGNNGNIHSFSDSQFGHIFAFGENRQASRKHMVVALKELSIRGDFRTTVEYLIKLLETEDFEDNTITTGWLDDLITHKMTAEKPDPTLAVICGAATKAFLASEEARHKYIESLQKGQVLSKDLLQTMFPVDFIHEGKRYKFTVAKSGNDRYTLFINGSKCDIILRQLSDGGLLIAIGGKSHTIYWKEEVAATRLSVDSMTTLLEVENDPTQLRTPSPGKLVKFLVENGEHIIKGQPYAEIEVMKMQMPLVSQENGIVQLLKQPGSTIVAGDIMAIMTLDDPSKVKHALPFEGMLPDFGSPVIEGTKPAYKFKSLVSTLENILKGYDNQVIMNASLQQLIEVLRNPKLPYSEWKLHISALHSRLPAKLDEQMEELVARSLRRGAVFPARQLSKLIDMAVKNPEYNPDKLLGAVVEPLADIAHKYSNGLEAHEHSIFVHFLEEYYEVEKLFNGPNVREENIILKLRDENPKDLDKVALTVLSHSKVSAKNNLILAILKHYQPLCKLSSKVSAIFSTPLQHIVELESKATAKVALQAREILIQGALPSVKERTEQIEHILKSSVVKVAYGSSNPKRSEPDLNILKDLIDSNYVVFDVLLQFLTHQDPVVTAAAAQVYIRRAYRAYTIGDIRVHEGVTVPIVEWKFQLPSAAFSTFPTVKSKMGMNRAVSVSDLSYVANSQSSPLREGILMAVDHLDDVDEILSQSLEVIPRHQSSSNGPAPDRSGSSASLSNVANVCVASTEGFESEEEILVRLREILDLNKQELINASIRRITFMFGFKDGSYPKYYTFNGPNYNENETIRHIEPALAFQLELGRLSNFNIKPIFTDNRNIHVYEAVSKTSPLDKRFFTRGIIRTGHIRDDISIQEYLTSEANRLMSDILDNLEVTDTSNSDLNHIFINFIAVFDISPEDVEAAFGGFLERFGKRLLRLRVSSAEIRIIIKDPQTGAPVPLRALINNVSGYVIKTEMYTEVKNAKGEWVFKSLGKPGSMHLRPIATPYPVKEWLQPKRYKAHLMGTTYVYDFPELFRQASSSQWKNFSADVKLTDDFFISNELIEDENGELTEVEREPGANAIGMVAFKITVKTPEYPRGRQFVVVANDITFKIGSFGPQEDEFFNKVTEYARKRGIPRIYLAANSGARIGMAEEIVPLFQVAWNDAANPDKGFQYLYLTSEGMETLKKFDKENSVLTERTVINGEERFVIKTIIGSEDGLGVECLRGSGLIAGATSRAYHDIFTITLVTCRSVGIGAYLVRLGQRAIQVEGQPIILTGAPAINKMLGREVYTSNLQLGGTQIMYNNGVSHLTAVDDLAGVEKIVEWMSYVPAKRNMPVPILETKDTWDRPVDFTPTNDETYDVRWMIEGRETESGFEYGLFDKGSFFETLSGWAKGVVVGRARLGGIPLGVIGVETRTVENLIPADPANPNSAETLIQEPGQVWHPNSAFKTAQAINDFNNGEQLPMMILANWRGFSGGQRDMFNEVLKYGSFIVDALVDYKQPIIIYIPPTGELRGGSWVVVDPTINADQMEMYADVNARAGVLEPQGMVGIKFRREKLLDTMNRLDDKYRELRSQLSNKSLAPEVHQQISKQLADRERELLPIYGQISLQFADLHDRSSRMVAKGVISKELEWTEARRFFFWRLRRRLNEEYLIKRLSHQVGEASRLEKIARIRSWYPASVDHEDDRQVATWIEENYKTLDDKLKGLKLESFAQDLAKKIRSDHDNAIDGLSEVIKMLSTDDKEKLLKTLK

Chain of human (hACC2) (O00763 whole entry): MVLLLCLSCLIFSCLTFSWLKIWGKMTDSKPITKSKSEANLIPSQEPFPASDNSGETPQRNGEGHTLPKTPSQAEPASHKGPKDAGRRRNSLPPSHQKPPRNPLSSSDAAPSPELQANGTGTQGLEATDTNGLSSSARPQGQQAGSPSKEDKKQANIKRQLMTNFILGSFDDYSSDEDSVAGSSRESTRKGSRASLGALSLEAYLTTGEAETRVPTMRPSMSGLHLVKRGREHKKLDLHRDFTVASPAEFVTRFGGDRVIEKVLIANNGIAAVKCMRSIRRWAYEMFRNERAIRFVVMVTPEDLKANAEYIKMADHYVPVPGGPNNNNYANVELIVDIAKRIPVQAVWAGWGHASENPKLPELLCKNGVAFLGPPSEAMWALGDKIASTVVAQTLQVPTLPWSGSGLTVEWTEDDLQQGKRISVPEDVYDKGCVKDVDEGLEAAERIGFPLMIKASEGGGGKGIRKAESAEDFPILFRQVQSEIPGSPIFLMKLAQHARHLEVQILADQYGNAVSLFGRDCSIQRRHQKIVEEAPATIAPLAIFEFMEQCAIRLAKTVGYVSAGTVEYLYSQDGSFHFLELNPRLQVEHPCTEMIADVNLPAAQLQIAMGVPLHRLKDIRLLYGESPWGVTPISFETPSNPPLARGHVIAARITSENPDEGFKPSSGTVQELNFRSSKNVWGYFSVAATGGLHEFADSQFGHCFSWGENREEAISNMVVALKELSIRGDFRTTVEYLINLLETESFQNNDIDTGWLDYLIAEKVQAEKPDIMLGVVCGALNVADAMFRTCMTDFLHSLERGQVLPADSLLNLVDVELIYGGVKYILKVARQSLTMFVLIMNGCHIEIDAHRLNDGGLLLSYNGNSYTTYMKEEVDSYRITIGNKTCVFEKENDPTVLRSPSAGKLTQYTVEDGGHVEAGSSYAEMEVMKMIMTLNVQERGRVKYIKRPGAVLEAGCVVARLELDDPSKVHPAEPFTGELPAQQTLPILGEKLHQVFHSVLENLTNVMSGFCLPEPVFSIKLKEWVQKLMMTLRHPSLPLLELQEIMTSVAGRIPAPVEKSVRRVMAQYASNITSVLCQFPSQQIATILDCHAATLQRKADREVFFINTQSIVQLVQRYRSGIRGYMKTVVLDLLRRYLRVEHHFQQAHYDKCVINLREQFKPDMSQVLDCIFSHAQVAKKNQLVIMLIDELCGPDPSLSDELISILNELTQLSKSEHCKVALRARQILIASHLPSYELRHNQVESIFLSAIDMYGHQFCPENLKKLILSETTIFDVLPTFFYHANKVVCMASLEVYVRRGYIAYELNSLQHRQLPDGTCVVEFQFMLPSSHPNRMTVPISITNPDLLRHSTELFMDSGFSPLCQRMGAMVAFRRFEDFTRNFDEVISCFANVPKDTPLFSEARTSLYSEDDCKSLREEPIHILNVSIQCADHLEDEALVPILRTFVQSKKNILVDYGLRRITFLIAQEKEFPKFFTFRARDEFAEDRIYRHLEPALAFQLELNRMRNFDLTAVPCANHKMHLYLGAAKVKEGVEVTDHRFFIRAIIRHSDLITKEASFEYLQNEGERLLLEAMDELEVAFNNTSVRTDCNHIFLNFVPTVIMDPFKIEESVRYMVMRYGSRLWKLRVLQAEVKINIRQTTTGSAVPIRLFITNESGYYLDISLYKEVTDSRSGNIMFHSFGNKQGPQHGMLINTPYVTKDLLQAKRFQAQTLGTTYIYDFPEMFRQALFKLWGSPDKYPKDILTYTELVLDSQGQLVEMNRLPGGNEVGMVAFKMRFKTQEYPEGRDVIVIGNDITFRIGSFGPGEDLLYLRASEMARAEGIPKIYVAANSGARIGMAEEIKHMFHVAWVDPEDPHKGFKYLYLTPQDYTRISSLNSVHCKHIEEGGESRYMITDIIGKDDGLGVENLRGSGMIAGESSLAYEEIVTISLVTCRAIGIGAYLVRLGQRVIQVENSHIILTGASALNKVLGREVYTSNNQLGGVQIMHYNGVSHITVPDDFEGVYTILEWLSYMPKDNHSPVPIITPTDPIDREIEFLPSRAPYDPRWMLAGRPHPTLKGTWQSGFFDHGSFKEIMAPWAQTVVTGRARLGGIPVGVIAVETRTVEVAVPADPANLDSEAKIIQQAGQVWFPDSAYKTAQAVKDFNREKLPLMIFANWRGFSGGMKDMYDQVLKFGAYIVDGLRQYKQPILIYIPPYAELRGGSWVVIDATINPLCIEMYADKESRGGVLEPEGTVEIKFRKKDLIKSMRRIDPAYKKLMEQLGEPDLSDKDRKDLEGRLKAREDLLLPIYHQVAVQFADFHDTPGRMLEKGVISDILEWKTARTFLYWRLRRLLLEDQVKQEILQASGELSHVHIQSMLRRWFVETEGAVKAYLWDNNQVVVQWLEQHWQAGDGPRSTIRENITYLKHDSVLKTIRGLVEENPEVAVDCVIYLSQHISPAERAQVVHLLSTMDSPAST

| SMILES | IC50 (human (hACC2); Table 2a) [nM] | IC50 (human (hACC2); Table 2b, additional results) [nM] | MIC (C. albicans; Table 3a) [µg/mL] | MIC (C. albicans; Table 3b (additional results)) [µg/mL] | MIC (C. krusei; Table 3a) [µg/mL] | MIC (C. krusei; Table 3b (additional results)) [µg/mL] | MIC (C. parapsilosis; Table 3a) [µg/mL] | MIC (C. parapsilosis; Table 3b (additional results)) [µg/mL] | IC50 (fungal (fACC2); Table 2a) [nM] | IC50 (fungal (fACC2); Table 2b, additional results) [nM] |
| --- | --- | --- | --- | --- | --- | --- | --- | --- | --- | --- |
| Cc1c(-n2nccn2)sc2c1c(=O)n(C(C)(C)C(=O)NC(C)C)c(=O)n2C[C@H](OC1CCOCC1)c1cc(F)ccc1OCC#N [Compound I-116] | 5 to 10 | 5 to 10 | 0.25 to 1 (≈ 0.382 to 1.53 µM) | 0.25 to 1 (≈ 0.382 to 1.53 µM) | 0.25 to 1 (≈ 0.382 to 1.53 µM) | 0.25 to 1 (≈ 0.382 to 1.53 µM) | 0.25 to 1 (≈ 0.382 to 1.53 µM) | 0.25 to 1 (≈ 0.382 to 1.53 µM) | 0.4 to 1 | 0.3 to 1 |
| COc1ccc(F)cc1[C@H](Cn1c(=O)n(C(C)(C)C(=O)N2CC=CC2)c(=O)c2c(C)c(-n3nccn3)sc21)OC[C@H](C)O [Compound I-117] | 5 to 10 | 5 to 10 | 2.1 to 4 (≈ 3.43 to 6.53 µM) | 1.01 to 2 (≈ 1.65 to 3.26 µM) | 0.25 to 1 (≈ 0.408 to 1.63 µM) | > 4.01 | 2.1 to 4 (≈ 3.43 to 6.53 µM) | 2.01 to 4 (≈ 3.28 to 6.53 µM) | 0.4 to 1 | 0.3 to 1 |
| COc1ccc(F)cc1[C@H](Cn1c(=O)n(C(C)(C)C(=O)N2CCCC2)c(=O)c2c(C)c(-n3nccn3)sc21)OCCCO [Compound I-118] | 1 to 5 | 1 to 5 | 1.1 to 2 (≈ 1.79 to 3.25 µM) | 1.01 to 2 (≈ 1.64 to 3.25 µM) | 0.25 to 1 (≈ 0.407 to 1.63 µM) | 1.01 to 2 (≈ 1.64 to 3.25 µM) | 2.1 to 4 (≈ 3.42 to 6.51 µM) | 1.01 to 2 (≈ 1.64 to 3.25 µM) | 0.4 to 1 | 0.3 to 1 |
| COc1ccc(F)cc1[C@H](Cn1c(=O)n(C(C)(C)C(=O)NC(C)C)c(=O)c2c(C)c(-n3nccn3)sc21)OCCCO [Compound I-119] | 1 to 5 | 1 to 5 | 0.25 to 1 (≈ 0.415 to 1.66 µM) | 0.25 to 1 (≈ 0.415 to 1.66 µM) | 0.06 to 0.24 (≈ 0.0996 to 0.398 µM) | 0.25 to 1 (≈ 0.415 to 1.66 µM) | 0.25 to 1 (≈ 0.415 to 1.66 µM) | 0.25 to 1 (≈ 0.415 to 1.66 µM) | 0.4 to 1 | 0.3 to 1 |
| C=CCNC(=O)C(C)(C)n1c(=O)c2c(C)c(-n3nccn3)sc2n(C[C@H](OC(C)C)c2cc(F)ccc2OC)c1=O [Compound I-120] | 5 to 10 | 5 to 10 | 0.25 to 1 (≈ 0.428 to 1.71 µM) | 1.01 to 2 (≈ 1.73 to 3.42 µM) | 0.25 to 1 (≈ 0.428 to 1.71 µM) | 0.25 to 1 (≈ 0.428 to 1.71 µM) | 0.25 to 1 (≈ 0.428 to 1.71 µM) | 2.01 to 4 (≈ 3.44 to 6.84 µM) | 1 to 5 | 1 to 5 |
